Assay results published in patent US11708367B2, “Compounds for the treatment of kinase-dependent disorders” (Exelixis, Inc., priority 2018, dated 2023).

Key:
Format in all cases: cell-based
[1] = target: AXL (Homo sapiens (Human), UniProt P30530); assay: AXL autophosphorylation ELISA in A-172 cells; details: cellular, Gas6-stimulated, phospho-AXL ELISA
In short: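 A-172 glioblastoma cells, serum-starved 24 h, got 8-point compound dilutions (0.3% DMSO) for 1 h, then 1 μg/mL human Gas6 for 15 min. Phospho-AXL in lysates was quantified by ELISA against a standard, normalized between DMSO and reference-inhibitor controls; IC50 by 4-parameter logistic fit.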

[2] = target: Mer (Homo sapiens (Human), UniProt Q12866); assay: Mer autophosphorylation ELISA in transient transfected 293A cells; details: cellular, MERTK-transfected 293A cells, phospho-Mer ELISA
Procedure: 293A cells (Thermo Fisher #R70507) were seeded at 1.5×10^6 cells/well onto 100 mm dish (Greiner #664169), in DMEM (Thermo Fisher #11995-040) containing 10% FBS (Thermo Fisher #26140-079), 1% MEM NEAA (Thermo Fisher #11140-050), 1% GlutaMax (Thermo Fisher #35050-061), and 1% Penicillin Streptomycin (Thermo Fisher #15140-122). 293A cells were incubated at 37° C., 5% CO2 for 24 h and then transfected with 6 μg MERTK DNA (Genecopoeia #EX-Z8208-M02) using TransIT LT1 transfection reagent (Mirus-Bio #MIR2305). After 24 h incubation, the transfected 293A cells were seeded at 1×10^5 cells/well onto 96-well plates (Corning #3904) in DMEM growth medium overnight. Test compounds were serially diluted to produce an 8-point dose curve in fresh serum-free medium to a final concentration of 0.3% DMSO (vehicle) and added to the cells and incubated for 1 h. Cells were then immediately lysed with 150 μL of cold IX lysis buffer [20 mM Tris, 137 mM sodium chloride, 2 mM EDTA, 10% glycerol, 1% NP-40 alternative, 1 mM activated sodium orthovanadate, 1 mM PefaBloc SC (Sigma-Aldrich #11429868001), protease/phosphatase inhibitor tablet (Thermo Fisher #A32959)]. Lysates were clarified by centrifugation and 50 μL/well added into the human phospho-Mer DuoSet IC ELISA (R&D Systems #DYC2579-2). Assay was performed according to manufacturer's instructions and sample phospho-Mer concentrations were extrapolated using human phospho-Mer control (R&D Systems #841793) as a standard. Positive control wells (100% activity) contained DMSO-treated cell lysates. Negative control wells (0% activity) contained reference inhibitor-treated cell lysates. IC50 values were calculated by nonlinear regression analysis using a 4-parameter logistic curve fit in ActivityBase XE (IDBS).

[3] = target: Met (Homo sapiens (Human), UniProt P08581); assay: Met autophosphorylation ELISA in PC-3 cells; details: cellular, HGF-stimulated, phospho-Met ELISA, read-out: c-Met IC50
In short: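 Serum-starved PC-3 cells treated 1 h with compound (8-point series, 0.3% DMSO), then stimulated 10 min with 100 ng/mL HGF. Phospho-Met (panTyr) quantified in lysates by sandwich ELISA; IC50 from 4-parameter logistic fit against DMSO and reference-inhibitor controls.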

[4] = target: KDR (Homo sapiens (Human), UniProt P35968); assay: KDR autophosphorylation ELISA in HUVEC cells; details: cellular, VEGF165-stimulated, phospho-KDR ELISA
In short: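 Serum-starved (24 h) HUVECs were pre-treated with compound (8-point dose curve, 0.3% DMSO final) for 1 h, then stimulated with 100 ng/mL human VEGF165 for 5 min. Lysate phospho-KDR was quantified by ELISA against a phospho-KDR standard. IC50 came from a 4-parameter logistic fit, normalized to stimulated-DMSO (100%) and unstimulated (0%) controls.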

Sequence of AXL (P30530 26-894): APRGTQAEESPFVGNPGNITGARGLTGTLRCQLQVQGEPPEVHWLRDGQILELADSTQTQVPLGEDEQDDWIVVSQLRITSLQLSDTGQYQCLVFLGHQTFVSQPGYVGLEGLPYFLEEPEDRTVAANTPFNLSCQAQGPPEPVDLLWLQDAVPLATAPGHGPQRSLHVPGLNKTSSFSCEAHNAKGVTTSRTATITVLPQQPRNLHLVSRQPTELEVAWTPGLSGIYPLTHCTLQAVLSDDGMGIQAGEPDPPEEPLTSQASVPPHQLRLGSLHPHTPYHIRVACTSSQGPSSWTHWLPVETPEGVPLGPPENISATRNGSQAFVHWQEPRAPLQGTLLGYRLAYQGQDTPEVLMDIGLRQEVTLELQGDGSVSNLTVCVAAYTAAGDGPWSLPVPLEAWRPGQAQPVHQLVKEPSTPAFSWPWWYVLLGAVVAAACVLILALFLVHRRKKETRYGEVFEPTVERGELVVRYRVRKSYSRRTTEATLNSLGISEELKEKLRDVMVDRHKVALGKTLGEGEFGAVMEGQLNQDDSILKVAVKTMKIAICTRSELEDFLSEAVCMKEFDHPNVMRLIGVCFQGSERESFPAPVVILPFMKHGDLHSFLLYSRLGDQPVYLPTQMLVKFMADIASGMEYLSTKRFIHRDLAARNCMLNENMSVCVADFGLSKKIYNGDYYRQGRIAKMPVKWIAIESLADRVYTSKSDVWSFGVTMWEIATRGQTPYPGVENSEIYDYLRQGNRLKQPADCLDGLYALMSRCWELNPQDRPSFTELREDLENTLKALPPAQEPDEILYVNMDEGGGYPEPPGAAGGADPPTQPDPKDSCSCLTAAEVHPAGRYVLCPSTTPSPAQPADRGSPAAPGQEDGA
Sequence of KDR (P35968 20-1356): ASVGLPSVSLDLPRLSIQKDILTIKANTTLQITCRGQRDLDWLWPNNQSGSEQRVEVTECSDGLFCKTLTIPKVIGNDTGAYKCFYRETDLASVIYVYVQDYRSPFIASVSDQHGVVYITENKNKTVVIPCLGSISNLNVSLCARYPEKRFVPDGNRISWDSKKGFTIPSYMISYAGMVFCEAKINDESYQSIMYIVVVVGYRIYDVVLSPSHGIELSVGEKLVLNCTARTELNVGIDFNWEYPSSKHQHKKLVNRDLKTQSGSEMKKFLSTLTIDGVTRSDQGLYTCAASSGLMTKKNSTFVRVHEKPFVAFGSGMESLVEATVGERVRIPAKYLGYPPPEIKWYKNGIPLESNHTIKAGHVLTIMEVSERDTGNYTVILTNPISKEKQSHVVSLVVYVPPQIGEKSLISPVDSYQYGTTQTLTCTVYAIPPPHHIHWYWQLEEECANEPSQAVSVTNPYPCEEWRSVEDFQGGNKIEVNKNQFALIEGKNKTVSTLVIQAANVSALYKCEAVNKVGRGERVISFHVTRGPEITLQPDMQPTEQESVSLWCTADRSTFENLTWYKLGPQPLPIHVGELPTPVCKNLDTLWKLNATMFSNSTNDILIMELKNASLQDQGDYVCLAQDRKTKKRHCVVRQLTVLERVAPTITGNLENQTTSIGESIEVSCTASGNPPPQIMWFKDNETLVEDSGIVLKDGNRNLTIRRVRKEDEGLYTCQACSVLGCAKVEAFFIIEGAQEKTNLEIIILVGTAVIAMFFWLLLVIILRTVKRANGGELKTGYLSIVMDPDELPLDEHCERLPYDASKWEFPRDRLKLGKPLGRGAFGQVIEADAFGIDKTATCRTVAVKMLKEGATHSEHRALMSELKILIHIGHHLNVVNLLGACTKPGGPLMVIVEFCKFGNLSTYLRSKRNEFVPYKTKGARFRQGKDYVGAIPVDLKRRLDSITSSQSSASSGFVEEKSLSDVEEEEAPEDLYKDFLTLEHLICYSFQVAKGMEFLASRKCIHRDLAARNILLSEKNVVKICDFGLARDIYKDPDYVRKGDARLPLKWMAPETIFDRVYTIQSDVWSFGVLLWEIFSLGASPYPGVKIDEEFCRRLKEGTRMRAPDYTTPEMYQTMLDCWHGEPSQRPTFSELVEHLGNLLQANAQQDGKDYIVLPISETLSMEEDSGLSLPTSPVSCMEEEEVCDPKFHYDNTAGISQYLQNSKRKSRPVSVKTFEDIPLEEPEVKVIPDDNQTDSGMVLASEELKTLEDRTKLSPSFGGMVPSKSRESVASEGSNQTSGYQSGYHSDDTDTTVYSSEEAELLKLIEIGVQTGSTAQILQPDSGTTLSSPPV
Sequence of Met (P08581 25-1390): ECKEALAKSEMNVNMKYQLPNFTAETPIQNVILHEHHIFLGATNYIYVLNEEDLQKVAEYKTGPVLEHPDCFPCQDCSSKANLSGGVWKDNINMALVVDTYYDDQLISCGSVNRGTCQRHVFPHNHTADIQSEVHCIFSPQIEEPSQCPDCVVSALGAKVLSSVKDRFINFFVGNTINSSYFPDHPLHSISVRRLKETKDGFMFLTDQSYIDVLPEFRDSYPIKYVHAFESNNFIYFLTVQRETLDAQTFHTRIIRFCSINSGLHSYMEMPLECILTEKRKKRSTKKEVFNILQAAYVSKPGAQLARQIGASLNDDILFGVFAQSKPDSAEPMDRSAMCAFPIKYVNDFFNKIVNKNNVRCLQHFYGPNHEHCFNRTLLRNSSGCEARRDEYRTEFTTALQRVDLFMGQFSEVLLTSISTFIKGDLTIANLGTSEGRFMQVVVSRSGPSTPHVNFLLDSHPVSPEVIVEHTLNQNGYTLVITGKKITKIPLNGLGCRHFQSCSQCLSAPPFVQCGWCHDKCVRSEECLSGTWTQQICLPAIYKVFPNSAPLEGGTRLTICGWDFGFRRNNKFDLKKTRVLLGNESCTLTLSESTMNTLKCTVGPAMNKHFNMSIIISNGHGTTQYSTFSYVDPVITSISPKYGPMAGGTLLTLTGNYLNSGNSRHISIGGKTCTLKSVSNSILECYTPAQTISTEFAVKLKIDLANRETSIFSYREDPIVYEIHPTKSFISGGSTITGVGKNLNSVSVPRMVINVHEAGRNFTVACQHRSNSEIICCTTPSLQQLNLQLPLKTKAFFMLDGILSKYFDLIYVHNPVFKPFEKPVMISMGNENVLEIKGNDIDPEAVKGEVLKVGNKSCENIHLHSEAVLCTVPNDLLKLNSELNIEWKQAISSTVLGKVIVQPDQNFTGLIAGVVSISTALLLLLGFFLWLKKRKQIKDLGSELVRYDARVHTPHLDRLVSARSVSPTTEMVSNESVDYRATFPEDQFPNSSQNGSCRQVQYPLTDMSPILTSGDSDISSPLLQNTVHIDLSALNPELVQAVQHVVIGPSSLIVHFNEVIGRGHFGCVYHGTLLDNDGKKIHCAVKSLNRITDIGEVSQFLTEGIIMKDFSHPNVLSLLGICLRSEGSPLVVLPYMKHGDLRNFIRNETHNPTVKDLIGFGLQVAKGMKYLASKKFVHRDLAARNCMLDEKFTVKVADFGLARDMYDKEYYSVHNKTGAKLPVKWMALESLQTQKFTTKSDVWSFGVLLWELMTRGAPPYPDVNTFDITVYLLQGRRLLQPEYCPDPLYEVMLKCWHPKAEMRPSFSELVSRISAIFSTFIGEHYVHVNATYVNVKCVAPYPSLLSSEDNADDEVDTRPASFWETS
Sequence of Mer (Q12866 21-999): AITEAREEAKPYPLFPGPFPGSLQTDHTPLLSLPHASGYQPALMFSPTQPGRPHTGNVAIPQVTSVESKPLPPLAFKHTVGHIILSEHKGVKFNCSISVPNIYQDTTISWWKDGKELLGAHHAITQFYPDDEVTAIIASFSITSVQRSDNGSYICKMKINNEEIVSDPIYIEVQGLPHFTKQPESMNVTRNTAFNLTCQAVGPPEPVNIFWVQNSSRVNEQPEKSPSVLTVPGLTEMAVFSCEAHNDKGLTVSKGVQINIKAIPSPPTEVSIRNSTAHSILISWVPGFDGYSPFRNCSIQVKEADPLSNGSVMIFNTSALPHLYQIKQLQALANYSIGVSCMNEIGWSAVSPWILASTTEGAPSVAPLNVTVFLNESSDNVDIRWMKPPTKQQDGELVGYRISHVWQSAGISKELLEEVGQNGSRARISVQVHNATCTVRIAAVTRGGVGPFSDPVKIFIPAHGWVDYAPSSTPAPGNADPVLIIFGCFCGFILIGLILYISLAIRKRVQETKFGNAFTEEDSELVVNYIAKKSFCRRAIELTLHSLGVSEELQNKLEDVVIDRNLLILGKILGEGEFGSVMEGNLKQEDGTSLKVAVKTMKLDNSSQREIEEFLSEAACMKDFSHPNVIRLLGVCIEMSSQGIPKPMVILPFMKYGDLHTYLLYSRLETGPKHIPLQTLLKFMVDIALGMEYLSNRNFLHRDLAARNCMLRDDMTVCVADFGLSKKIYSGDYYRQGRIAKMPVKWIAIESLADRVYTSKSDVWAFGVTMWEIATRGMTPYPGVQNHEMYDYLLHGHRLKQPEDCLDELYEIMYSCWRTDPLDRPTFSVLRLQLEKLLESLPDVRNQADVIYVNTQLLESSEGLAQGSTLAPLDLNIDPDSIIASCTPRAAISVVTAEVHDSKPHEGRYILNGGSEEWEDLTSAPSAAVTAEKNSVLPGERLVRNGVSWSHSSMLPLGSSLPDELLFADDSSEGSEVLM

SMILES	IC50 [1] [nM]	IC50 [2] [nM]	IC50 [3] [nM]	IC50 [4] [nM]
Cn1cc(-c2cnc3c(Oc4ccc(NC(=O)C5(C(=O)Nc6ccc(F)cc6)CC5)cc4)ncnc3c2)cn1 [Compound 129, 1-N′-(4-fluorophenyl)-1-N-[4-[7-(1-methylpyrazol-4-yl)pyrido[3,2-d]pyrimidin-4-yl]oxyphenyl]cyclo-propane-1,1-dicarboxamide]	10 to 100	100 to 300	100 to 300	100 to 300
COc1cnc2c(Oc3cc(F)c(NC(=O)C4(C(=O)Nc5ccc(F)cc5)CC4)cc3F)ncnc2c1 [Compound 19, 1-N′-[2,5-difluoro-4-(7-methoxypyrido[3,2-d]pyrimidin-4-yl)oxyphenyl]-1-N-(4-fluorophenyl)cyclo-propane-1,1-dicarboxamide]	10 to 100	10 to 100	10 to 100	100 to 300
COc1nc2c(Oc3ccc(NC(=O)C4(C(=O)Nc5ccc(F)cc5)CC4)c(F)c3F)ncnc2cc1OCCCN1CCOCC1 [Compound 73, 1-N′-[2,3-difluoro-4-[6-methoxy-7-(3-morpholin-4-ylpropoxy)pyrido[3,2-d]pyrimidin-4-yl]oxyphenyl]-1-N-(4-fluoro-phenyl)cyclopropane-1,1-dicarboxamide]	≤ 10	≤ 10	10 to 100	≤ 10
COc1nc2c(Oc3cc(F)c(NC(=O)C4(C(=O)Nc5ccc(F)cc5)CC4)cc3F)ncnc2cc1OCCCN1CCOCC1 [Compound 72, 1-N′-[2,5-difluoro-4-[6-methoxy-7-(3-morpholin-4-ylpropoxy)pyrido[3,2-d]pyrimidin-4-yl]oxyphenyl]-1-N-(4-fluorophenyl)cyclo-propane-1,1-dicarboxamide]	≤ 10	10 to 100	10 to 100	10 to 100
COc1nc2c(Oc3ccc(NC(=O)C4(C(=O)Nc5ccc(F)cc5)CC4)cc3C)ncnc2cc1OCCCN1CCOCC1 [Compound 68, 1-N-(4-fluorophenyl)-1-N′-[4-[6-methoxy-7-(3-morpholin-4-ylpropoxy)pyrido[3,2-d]pyrimidin-4-yl]oxy-3-methylphenyl]cyclopropane-1,1-dicarboxamide]	10 to 100	10 to 100	100 to 300	10 to 100
COCCOc1cc2ncnc(Oc3ccc(NC(=O)C4(C(=O)Nc5ccc(F)cc5)CC4)c(F)c3)c2nc1OC [Compound 81, 1-N′-[2-fluoro-4-[6-methoxy-7-(2-methoxyethoxy)pyrido[3,2-d]pyrimidin-4-yl]oxy-phenyl]-1-N-(4-fluorophenyl)cyclopropane-1,1-dicarboxamide]	≤ 10	≤ 10	10 to 100	10 to 100
Cn1cc(-c2cc3ncnc(Oc4ccc(NC(=O)C5(C(=O)Nc6ccc(F)cc6)CC5)cc4)c3cn2)cn1 [Compound 130, 1-N′-(4-fluorophenyl)-1-N-[4-[7-(1-methylpyrazol-4-yl)pyrido[4,3-d]pyrimidin-4-yl]oxyphenyl]cyclopropane-1,1-dicarboxamide]	10 to 100	10 to 100	10 to 100	≤ 10

The next lines start with the values.

IC50 [1] [nM]	IC50 [2] [nM]	IC50 [3] [nM]	IC50 [4] [nM]	SMILES
≤ 10	≤ 10	10 to 100	10 to 100	COc1nc2c(Oc3ccc(NC(=O)C4(C(=O)Nc5ccc(F)cc5)CC4)c(F)c3)ncnc2cc1OCCCN1CCOCC1 [Compound 69, 1-N′-[2-fluoro-4-[6-methoxy-7-(3-morpholin-4-ylpropoxy)pyrido[3,2-d]pyrimidin-4-yl]oxyphenyl]-1-N-(4-fluorophenyl)cyclo-propane-1,1-dicarboxamide]
≤ 10	≤ 10	≤ 10	10 to 100	COc1cc2ncnc(Oc3cc(F)c(NC(=O)C4(C(=O)Nc5ccc(F)cc5)CC4)cc3F)c2nc1OC [Compound 35, 1-N′-[4-(6,7-dimethoxypyrido[3,2-d]pyrimidin-4-yl)oxy-2,5-difluorophenyl]-1-N-(4-fluorophenyl)cyclo-propane-1,1-dicarboxamide]
≤ 10	≤ 10	10 to 100	≤ 10	COCCOc1cc2nccc(Oc3ccc(NC(=O)C4(C(=O)Nc5ccc(F)cc5)CC4)cc3)c2nc1OC [Compound 149, 1-N′-(4-fluorophenyl)-1-N-[4-[[6-methoxy-7-(2-methoxyethoxy)-1,5-naphthyridin-4-yl]oxy]phenyl]cyclopropane-1,1-dicarboxamide]
≤ 10	≤ 10	10 to 100	≤ 10	COCCOc1cc2ncnc(Oc3ccc(NC(=O)C4(C(=O)Nc5ccc(F)cc5)CC4)cc3F)c2nc1OC [Compound 79, 1-N′-[3-fluoro-4-[6-methoxy-7-(2-methoxyethoxy)pyrido[3,2-d]pyrimidin-4-yl]oxy-phenyl]-1-N-(4-fluorophenyl)cyclopropane-1,1-dicarboxamide]
